Results from patent US4871766A, “Oil-in-water pesticidal emulsion” (priority 1986, dated 1989).

Columns and labels:
[1] = Behaviour of active ingredient on storage at 0° C.; format: physicochemical; conditions: stored at 0° C. for a long time
[2] = Solubility of active ingredient in hydrocarbon at 0° C.; format: physicochemical

## CC1(C)C(C=C(Cl)Cl)C1C(=O)OC(C#N)c1cccc(Oc2ccccc2)c1 (stereo not drawn) [active ingredient (b), α-Cyano-3-phenoxybenzyl 3-(2,2-dichlorovinyl)-2,2-dimethylcyclopropanecarboxylate]
[1]
  crystallization of the active ingredient on storage: crystallizes in part

## CC(C)C(C(=O)OC(C#N)c1cccc(Oc2ccccc2)c1)c1ccc(Cl)cc1 (stereo not drawn) [active ingredient (f), α-Cyano-3-phenoxybenzyl 2-(4-chlorophenyl)-3-methylbutyrate]
[2]
  solubility in the hydrocarbon (3): ≥ 50 wt. %

## CC(COc1ccc(Oc2ccccc2)cc1)Oc1ccccn1 (stereo not drawn) [active ingredient (h), 2-{1-Methyl-2-(4-phenoxyphenoxy)ethoxy}pyridine]
[2]; hydrocarbon (6)
  solubility in the hydrocarbon (6): 10 wt. %

## CC1(C)C(C=C(Cl)Cl)C1C(=O)OCc1cccc(Oc2ccccc2)c1 (stereo not drawn) [active ingredient (d), 3-Phenoxybenzyl 3-(2,2-dichlorovinyl)-2,2-dimethylcyclopropanecarboxylate]
[2]; hydrocarbon (4)
  solubility in the hydrocarbon (4): ≥ 50 wt. %

## CC1(C)C(C(=O)OC(C#N)c2cccc(Oc3ccccc3)c2)C1(C)C (stereo not drawn) [active ingredient (e), α-Cyano-3-phenoxybenzyl 2,2,3,3-tetramethylcyclopropanecarboxylate]
[2]
  solubility in the hydrocarbon (3): ≥ 50 wt. %

## CCC(C)c1ccccc1OC(=O)NC (stereo not drawn) [active ingredient (a), 2-Sec-butylphenyl N--methylcarbamate]
[2]; hydrocarbon (5)
  solubility in the hydrocarbon (5): ≥ 50 wt. %
